Reference: patent US20050159362A1, “Mediators of reverse cholesterol transport for the treatment of hypercholesterolemia” (priority 2003, published 2005)
“Also recorded” adds a separate entry of the source. Square brackets hold non-standard residues; d marks the D form. Ends that are not written are not given here. Bip = N[C@@H](Cc1ccc(-c2ccccc2)cc1)C(=O)O

Legend:
[1] = test system: C57BL/6J mice switched on HFC diet; experiment: Long term effect of peptides on lipoprotein metabolism (7 days pumps, 160 hrs); type: in vivo, mouse; settings: 160 hrs infusion, pumps 1 μl/hr
Method: (§1) Effect of time-released peptides on plasma lipoprotein profile—To determine relatively long-term effect of SEQ ID NO: 1 and its derivatives on plasma lipoprotein profile, the Alzet Mini-Osmotic pumps (220 ul), containing various peptides or PBS, were surgically inserted in canulated Chow fed C57BL/6J mice. The pumps with flow rate equal to 8 μl/hr were used for 20 hrs continuous infusion of peptides. The pumps with flow rate equal to 1 μl/hr were used for 160 hrs continuous infusions of peptides. At the end point (20 or 160 hrs after pumps insertion) mice were sacrificed, and blood was drawn by retroorbital puncture and subjected to low speed centrifugation at 4° C. to obtain the plasma. Bile was immediately removed from gall bladders using insulin syringes, and stored on ice until use.
To determine HDL cholesterol, low density lipoproteins were precipitated from plasma using a modified Burstein-Samaille method according to manufacturer's instructions (Boehringer Mannheim 543004), modifying only the ratio of reagent:water from 4:1 to 4:2. Gall bladder derived bile was diluted twice with deionized water, and cholesterol was determined using. Infinity reagents. 3α-Hydroxybile acids were quantified uiising a colorimetric-enzymatic method (Sigma 450).
To monitor cholesterol distribution among the different lipoprotein classes, plasma samples were combined within each group (usually 4-6 mice per group), and subjected to FPLC size-exclusion chromatography on a Superose 6 (HR 10/30 column, Amersham-Pharmacia) using an isocratic 10 mM Tris/150 mM NaCl/1 mM EDTA buffer system at a flow rate of 0.15 ml/min. […] Total and free cholesterol in plasma fractions was determined by using the fluorescent method of W. Gamble, et al. (Gamble et al., 1978, Journal Lipid Res., 16: 1068-1070). 96-well plates were read on Dual-Scanning Microplate Spectrofluorometer Gemini XS (Molecular Devices). The areas under the lipoprotein peaks were quantified by using Unicorn software (Version 3.21.02). The amount of esterified cholesterol was assessed by subtraction of free cholesterol from total cholesterol. […]

PLTP = target: T1, PLTP (Mus musculus, UniProt P55065); experiment: Effect of peptides on PLTP activity; type: biochemical; settings: mouse plasma incubated with 0.4, 2, 5 and 10 ug peptide at RT for 30 min
T1 construct: Mouse plasma (source of enzyme), obtained from Chow fed mice and from mice fed with high fat cholate containing diet; from tissue; host or cells: serum/plasma of C57BL/6J male mice (chow-fed or high fat cholate diet for 4 days)
Method: Effect of peptides on PLTP activity—PLTP activity was measured using a fluorescent kit (Cardiovascular Targets, Inc., P7700). PLTP source was serum obtained from C57BL/6J male 2 months old mice, which were Chow-fed or maintained on high fat cholate containing diet for four days. 1× Mouse serum was preincubated with PBS or 0.4, 2, 5, and 10 μg of peptides at RT for 30 minutes. Following preincubation, the mixture was diluted 10 times, and 10 μl ([…] nest serum) was immediately mixed into reaction wells of pre-chilled 96-well plate, containing assay system (Cardiovascular Targets, Inc., P7700). The microplates were read at 37° C. in SpectraMax 190 (Molecular Devices), for 30 minutes.
Mouse plasma (source of enzyme), obtained from Chow fed mice and from mice fed with high fat cholate containing diet for 4 days, was incubated with PBS or the peptide of SEQ ID Nos: 34, 86, 91 and 96 (0.4, 2, 5, and 10 ug) at RT for 30 min. Reaction was started by addition of 0.3 μl of plasma/PBS or plasma/SEQ ID NO mixture to 100 μl of assay solution containing fluorescent substrate. PLTP activity was monitored on Spectrofluorometer for 20 min at 37° C. Each bar represents the Mean±SEM obtained from 3 independent experiments.

[2] = test system: C57BL/6J mice fed a cholate-containing high fat diet (HFC); experiment: Effect of single bolus injections of peptides on plasma lipoprotein profile; type: in vivo, mouse
Method: Effect of single bolus injections of peptides on plasma lipoprotein profile—To monitor effect of peptides on plasma cholesterol levels and its distribution among the different lipoprotein classes, the nonradioiodinated free peptides (100 μg in 100 μl of PBS) were injected intravenously into the tail vein of nonfasted C57BL/6J wild type mice, which have been placed on high fat cholate-containing diet four days prior to experiment. To control for the effect of external- and/or internal nonspecific factors (stress of handling, anesthetic, blood drawing) on plasma lipoprotein profile, a similar group of mice was injected with only PBS. Different groups of mice were sacrificed before and at various times after injections and blood was drawn by retroorbital puncture and subjected to low speed centrifugation at 4° C. to obtain the plasma. Plasma samples were obtained, combined within each group (4 mice), and subjected to gel filtration chromatography on a Superose 6 (HR 10/30 column, FPLC) to monitor cholesterol lipoproteins distribution and agarose gel electrophoresis (Paragon Systems) to monitor phospholipid lipoproteins distribution.
(§2) To monitor cholesterol distribution among the different lipoprotein classes, plasma samples were combined within each group (usually 4-6 mice per group), and subjected to FPLC size-exclusion chromatography on a Superose 6 (HR 10/30 column, Amersham-Pharmacia) using an isocratic 10 mM Tris/150 mM NaCl/1 mM EDTA buffer system at a flow rate of 0.15 ml/min. Fractions (0.15 ml) were collected into 96-well plates containing 0.055 ml of 1:1 mixture of 0.5% Triton X-100 and 20 mM Sodium Cholate. Total and free cholesterol in plasma fractions was determined by using the fluorescent method of W. Gamble, et al. (Gamble et al., 1978, Journal Lipid Res., 16: 1068-1070). 96-well plates were read on Dual-Scanning Microplate Spectrofluorometer Gemini XS (Molecular Devices). The areas under the lipoprotein peaks were quantified by using Unicorn software (Version 3.21.02). The amount of esterified cholesterol was assessed by subtraction of free cholesterol from total cholesterol.
Mice were divided into two groups—control and experimental. Each group contained 4 mice.
Effect of “frame-shift” derived peptides on lipoprotein metabolism (Single bolus injections)—We performed the functional frame-shift of the entire region of mouse apolipoprotein A1 where SEQ ID NO: 1 derived from (helix 6, Pro166-Pro188, precursor protein). Frame-shift was done in both directions (form N-to C- and from C- to N-Terminus). […] Mice were divided into two groups—control and experimental. Each group contained 4 mice. […] The data are expressed as percent of change of total cholesterol (TC) content of VLDL, IDL/LDL, and HDL classes in experimental mice relative to control (PBS injected) mice.
Effect of chemically modified derivatives of SEQ ID NO: 1 and peptides derived from other mouse apoA1 regions on mouse plasma lipoprotein profile (Single bolus injections)—To increase SEQ ID NO: 1 hydrophobicity, Phenyl Acetyl or Pivalic Acid were attached to N-Terminal Tyr residue of SEQ ID NO: 1, or Tyr residue was removed from N-terminus. […] Mice were divided into two groups—control and experimental. Each group contained 4 mice. […] The data are expressed as percent of change of total cholesterol (TC) content of VLDL, IDL/LDL, and HDL classes in experimental mice relative to control (PBS injected) mice.

[3] = test system: LDLR−/− mice and A-I−/− mice; experiment: Plasma clearance and tissue distribution of SEQ ID NO: 1-125I-LDL complexes; type: in vivo, mouse
Method: Plasma clearance and tissue distribution of SEQ ID NO: 1-LDL complexes—^125I-LDL (0.2 nmol) was incubated at 37° C. in PBS alone, or with 4 nmol of SEQ ID NO: 1. After 2 h, the mixture was dialyzed against PBS containing […] BHT. ^125I-LDL alone or SEQ ID NO: 1/^125I-LDL complex were injected intravenously into the tail vein of nonfasted mice under metofane anesthesia. Mice were bled at the certain time points after the injection by retroorbital bleeding into heparinized tubes. The blood was subjected to low speed centrifugation (1800 g, 4° C.) and the 10% TCA precipitable radioactivity of the plasma was measured. […] An incision was made in the […] vena cava to clear the perfusate. Within 15 min, the liver, kidneys, spleen, and heart were removed, cleaned, weighed, and counted for ^125I radioactivity. Entire organs were counted with exception of liver, which was counted in pieces. Radioactivity detected per organ or per 1 g of wet tissue was expressed as a percent of the initial total injected radioactivity that was TCA precipitable.
To determine if SEQ ID NO: 1 can associate with human LDL, we attempted to form the complex of ^125I-SEQ ID NO: 1 with isolated human LDL. […] To determine if SEQ ID NQ: 1 influences lipoprotein transport to the liver, we injected the ^125-LDL alone or in complex with SEQ ID NO: 1 into LDLR−/− mice (no LDL-receptor) and A-I−/− mice, which have a functional hepatic LDL-receptor. […] To assess the contribution of LDL-receptors alone, the binding of [^125I-LDL] and [125I-LDL-SEQ ID NO: 1] to the liver of LDLR−/− mice was subtracted from their respective binding to the liver of A-I−/− mice, and data were normalized per gram of wet tissue. […] Influence of SEQ ID NO: 1 on ^125I-LDL binding to kidney, spleen, lung, heart, testis, adrenal, and prostate is shown in FIG. 8. It is noteworthy that no increase in 125I-LDL-SEQ ID NO: 1 complex binding to the heart was observed.

[4] = test system: C57BL/6J mice switched on HFC diet; experiment: Effect of time-released peptides on plasma lipoprotein profile (20 hrs pumps); type: in vivo, mouse; settings: for plasma HDL cholesterol levels / plasma levels of HDL phospholipids / plasma levels of low density lipoproteins: 20 hrs continuous infusion, pumps 8 ul/hr; for activity upon infusion into mice for 20 hrs: 20 hrs infusion, FIG. 16
Method: as §1, §2
To monitor the distribution of phospholipid among the lipoprotein classes, plasma samples were combined within each group (usually 4-6 mice per group), and subjected to agarose gel electrophoresis, which was carried out using the Paragon system (Beckman Coulter) according to manufacturer's instructions, with following staining with Paragon Lipo Stain (Beckman Coulter 655910). Once dried, the gels were scanned on Personal Densitometer SI (Molecular Dynamics) and bands were quantified using ImageQuant™ software (Verssion 5.2).
Impact of SEQ ID NO: 1 on lipoprotein metabolism (20 hrs pumps)—To determine relatively long-term effect of SEQ ID NO: 1 on plasma lipoprotein profile, the Alzet Mini-Osmotic pumps, containing SEQ ID NO: 1 or PBS, were surgically inserted in canculated Chow fed C57BL/6J mice. The pumps flow rate was equal to 8 ul per hr, which provided the delivery amount of SEQ ID NO: 1 per hr as indicated for FIG. 9. Mice were switched on HFC diet immediately after surgery. 20 hrs later plasma samples were obtained, combined within each group (4 to 6 mice), and subjected to FPLC analysis and agarose gel electrophoresis for assessment of cholesterol and phospholipid distribution among the lipoprotein classes. […] The LDL lowering effect was attenuated with increase of SEQ ID NO: 1 concentration. This phenomenon can be explained by self-competition between free and LDL-bound form of SEQ ID NO: 1 for the liver lipoprotein binding sites. In contrast, HDL cholesterol levels were positively correlated with SEQ ID NO: 1 concentration.
Impact of SEQ ID NO: 1 structural derivatives (3 to 13 amino acid residues) on lipoprotein metabolism (20 hrs pumps)—To determine relatively long-term effect on plasma lipoprotein profile, the Alzet Mini-osmotic pumps, containing SEQ ID NO: 1 derivatives or PBS, were surgically inserted in canulated Chow fed C57BL/6J mice. The pumps flow rate was equal to 8 ul per hr, which provided the deliveries of 30-40 μg of peptides per hr. Mice were switched on HFC diet immediately after surgery. […]

T1 sequence (P55065 18-493): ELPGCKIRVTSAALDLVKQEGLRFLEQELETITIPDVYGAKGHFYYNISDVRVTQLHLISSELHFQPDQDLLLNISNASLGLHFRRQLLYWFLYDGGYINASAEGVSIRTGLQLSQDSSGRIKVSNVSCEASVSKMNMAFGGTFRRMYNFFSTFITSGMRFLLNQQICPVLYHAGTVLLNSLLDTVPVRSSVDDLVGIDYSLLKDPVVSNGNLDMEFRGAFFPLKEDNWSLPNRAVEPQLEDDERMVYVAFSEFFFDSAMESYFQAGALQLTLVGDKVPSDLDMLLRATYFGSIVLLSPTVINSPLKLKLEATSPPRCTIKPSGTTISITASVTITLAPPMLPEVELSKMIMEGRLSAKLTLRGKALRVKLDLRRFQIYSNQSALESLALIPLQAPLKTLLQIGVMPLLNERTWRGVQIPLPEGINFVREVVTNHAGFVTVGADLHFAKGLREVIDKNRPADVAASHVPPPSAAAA

Row | Substance | amount of phospholipid in the HDL zone [1] | effect on PLTP activity (PLTP) | plasma HDL cholesterol levels [4] | plasma levels of HDL phospholipids [4] | plasma levels of low density lipoproteins [4] | also measured
1 | EFR [SEQ ID NO: 34] | increase | activation of PLTP |  |  |  | 
2 | THVDSLRTQLAP (Ac-THVDSLRTQLAP-NH2) [SEQ ID NO: 7] |  |  |  |  |  | impact on plasma HDL-C levels ([2]; single bolus i.v. 100 μg): marked HDL-C elevating properties
3 | YEFRDRMRTH [SEQ ID NO: 1] |  |  | elevated | elevated | dramatic decrease | plasma clearance of 125I-LDL-SEQ ID NO: 1 complex ([3]; ApoA1−/− mice, compared to 125I-LDL alone): enhanced plasma clearance; liver-bound 125I-LDL after complexing with SEQ ID NO: 1 ([3]; both mouse genotypes (LDLR−/− and A-I−/−), compared to 125I-LDL alone): significant increase; complex binding to the LDL-receptors (liver binding in A-I−/− minus LDLR−/− mice) ([3]; compared to 125I-LDL alone, per gram of wet tissue): substantial increase; 125I-LDL-SEQ ID NO: 1 complex binding to the heart ([3]; mouse, in vivo): no increase; in vivo half-life: 2 to 3 h; duration of effect after single bolus injection [2]: up to 180 min; impact on plasma HDL-C levels ([2]; single bolus i.v. 100 μg): slight but significant decrease; impact on VLDL level ([2]; single bolus i.v. 100 μg, entire time course): no significant impact; impact on plasma IDL/LDL, low density lipoproteins ([2]; single bolus i.v. 100 μg, 90, 120 and 180 min after injection): Significant lowering; also recorded: strongest impact
4 | dRMRTH ([dD]RMRTH) [SEQ ID NO: 36] |  | did not have any significant effect |  |  |  | activity upon infusion into mice for 20 hrs [4]: did not show significant activity
5 | rDRMRTh ([dR]DRMRT[dH]) [SEQ ID NO: 35] |  | did not have any significant effect | decrease | decrease | increase | activity upon infusion into mice for 20 hrs [4]: did not show significant activity
6 | efr ([dE]-[dF]-[dR]) [SEQ ID NO: 96] |  | activation of PLTP |  |  |  | 
7 | erf ([dE]-[dR]-[dF]) [SEQ ID NO: 86] | increase | activation of PLTP |  |  |  | 
8 | EEFRDR [SEQ ID NO: 87] |  |  | decrease | decrease | increase | 
9 | E-BIP-R (Glu-[Bip]-Arg) [SEQ ID NO: 91] | increase | activation of PLTP |  |  |  | 
